{
  "source": "paper PMC7380640",
  "about": "“Development of a brain-permeable peptide nanofiber that prevents aggregation of Alzheimer pathogenic proteins” (PLoS ONE, 2020)",
  "key": {"Aβ (1–42)": {"tested_on": "Aβ (1–42)", "settings": "100 nM of Aβ (1–42); cited from earlier work", "description": "The neutral αAC nanofibers suppressed aggregation of Aβ (1–42), without promoting the aggregation of 3RMBDof tau (Fig 2) and cytotoxicity of Aβ (1–42) against PC12 cells (Fig 7). Several brain-permeable low molecular weight compounds that suppress the aggregation of amyloidβ have been proposed as therapeutic drugs for AD [48–55]; unfortunately, the affinity of these compounds for Aβ tends to be low. For example, >100 nM of curcumin is required to inhibit the cytotoxicity of 100 nM of Aβ (1–42)."}, "trypsin": {"molecular_target": "T1, trypsin (Bos taurus, UniProt P00760)", "T1 construct": "purchased type XIII; host or cells: bovine pancreas", "T1 sequence (P00760 24-246)": "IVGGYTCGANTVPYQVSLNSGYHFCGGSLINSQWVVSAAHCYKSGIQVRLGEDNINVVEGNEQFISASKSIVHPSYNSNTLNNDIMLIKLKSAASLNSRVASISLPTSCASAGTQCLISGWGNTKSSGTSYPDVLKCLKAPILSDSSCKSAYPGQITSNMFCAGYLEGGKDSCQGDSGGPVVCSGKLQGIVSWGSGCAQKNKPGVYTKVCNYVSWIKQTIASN", "assay": "Proteolytic digestion with trypsin (GPC)", "assay_type": "in vitro ADME", "settings": "200 μM peptide or nanofiber, 12 μM trypsin (type XIII, bovine pancreas), 5 mM phosphate 100 mM NaCl pH 7.5, 37°C, GPC peak of FVIFLDVK, A220", "description": "The αAC peptides or the neutralαAC nanofiber (200 μM) were incubated with trypsin (12 μM, type XIII from bovine pancreas) in 5 mM phosphate buffer containing 100 mM NaCl (pH 7.5) at 37°C. The molecular mass of the digested peptides were analyzed with MALDI-TOF mass spectroscopy using a BrukerAutoflex Speed instrument. The proteolyzed sample of αAC nanofibers was centrifuged (10,000g for 5 min) to separate the peptide fragments from the nanofibers. The apparent rate of proteolysis of αAC(71–88) was estimated from gel permeation chromatography analysis using a Superdex^TMpeptide 10/300 GL column (GE Healthcare, Piscataway, NJ). Water including 30% acetonitrile and 0.1% TFA was used as the elution solvent."}, "[1]": {"tested_on": "rat pheochromocytoma (PC12)", "settings": "cited from earlier work", "excerpt": "(§1) Alzheimer’s disease (AD) is a progressive neurodegenerative disorder and the most common form of dementia characterized by senile plaque (SP), which is the extracellular deposit of amyloidβ(Aβ)aggregates,and neurofibrillary tangle, which is the intracellular accumulation of phosphorylated tau protein [3]. Although highly ordered linear Aβaggregates, known as amyloid fibrils, are the major component of SP and one of the hallmark features of AD, soluble oligomers of aggregates are regarded as more cytotoxic. The therapeutic use of peptide inhibitors of pathological ..."}, "Aβ peptides": {"tested_on": "Aβ peptides", "settings": "cited from earlier work", "excerpt": "as §1"}},
  "note": "Where a SMILES comes first, the peptide text is derived from it.",
  "data": [
    {"molecule": "COc1cc(/C=C/C(=O)CC(=O)/C=C/c2ccc(O)c(OC)c2)ccc1O", "note": "[curcumin]", "values": [
      {"measurement": "concentration required to inhibit the cytotoxicity of Aβ (1–42)", "setting": "Aβ (1–42)", "value": "> 100", "unit": "nM"}
    ]},
    {"molecule": "CC[C@H](C)[C@H](NC(=O)[C@@H](NC(=O)[C@@H](N)Cc1ccccc1)C(C)C)C(=O)N[C@@H](Cc1ccccc1)C(=O)N[C@@H](CC(C)C)C(=O)N[C@@H](CC(=O)O)C(=O)N[C@H](C(=O)N[C@@H](CCCCN)C(=O)N[C@@H](Cc1c[nH]cn1)C(=O)N[C@@H](Cc1ccccc1)C(=O)N[C@@H](CO)C(=O)N1CCC[C@H]1C(=O)N[C@@H](CCC(=O)O)C(=O)N[C@@H](CC(=O)O)C(=O)N[C@@H](CC(C)C)C(=O)N[C@H](C(=O)N[C@H](C(=O)N[C@@H](CCCCN)C(=O)O)C(C)C)[C@@H](C)O)C(C)C", "note": "[αAC(71–88)] (H-FVIFLDVKHFSPEDLTVK-OH)", "values": [
      {"measurement": "fraction of αAC(71–88) digested (single cleavage) after 24 h proteolysis", "setting": "trypsin", "value": "ca. 90%"}
    ]},
    {"molecule": "DFVIFLDVKHFSPEDLTVK", "values": [
      {"measurement": "effect on toxicity of Aβ in PC12", "setting": "[1]; rat pheochromocytoma (PC12)", "value": "suppress the toxicity"},
      {"measurement": "effect on fibril formation of Aβ peptides", "setting": "Aβ peptides", "value": "inhibit fibril formation"}
    ]},
    {"molecule": "DFVIFLDVKHFSPEDLTVK [CPP-fused αAC peptides, cell-penetrating peptide-fused type peptides of the αA-crystallin peptide]", "values": [
      {"measurement": "effect on Aβ toxicity", "setting": "[1]", "value": "suppress Aβ toxicity"},
      {"measurement": "effect on Aβ fibril formation", "setting": "Aβ peptides", "value": "prevented Aβ fibril formation"}
    ]}
  ]
}
